Common to all, as to assay: growth of human tumour cells (NCI), 48 h
Assay [1] deals with A498 renal.
In assay [2] the test system is M14 melanoma.
In assay [3] the test system is MALME-3M melanoma.
The subject of assay [4] is MDA-MB-435.
Assay [5] has as its system OVCAR-8 ovarian.
In assay [6] the test system is SW-620 colon.

Values joined by “and” are separate entries in the source; they are usually repeats but may differ in a detail not shown here. Equal entries are not always repeated.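 Values below derive from 48-hour exposures of cells grown in 96-well plates, with endpoints linearly interpolated between the two concentrations bracketing the appropriate inhibition level. At the GI50, growth is halved. TGI: concentration producing complete growth inhibition.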 Where a SMILES comes first, the peptide text is derived from it. The star is where a group is joined. Boc = CC(C)(C)OC(=O)* Some results are limits rather than exact numbers.

The record followed here is PubChem BioAssay (NCI).

On to `O=C(NNC(=O)c1csc(NC(=S)NC2CCCCC2)n1)c1ccccc1`, for which the TGI in assay [1] came out at 76.2 µM; in assay [2] it was 35.4 µM; in assay [3], 43.2 µM; in assay [4] it was 33.1 µM; in assay [5], 59.2 µM; in assay [6], 29.5 µM.
Consider `CC(C)Oc1c(-c2ccc(F)cc2)c(O)c2c3c1oc(=O)n3C=CC2C` (centres undefined), for which the TGI in assay [1] is 28.2 µM; in assay [2] it was 28.5 µM; in assay [3], 91.1 µM; in assay [4], 52.9 µM; in assay [5], 30.6 µM; in assay [6], 28.5 µM.
For `O=C(N/N=C/c1ccccc1)c1cccc2nc3ccccc3nc12`, the TGI in assay [1], in assay [2], in assay [3], in assay [4], in assay [5] and in assay [6] was > 100 µM each time.
Take `Fc1ccc(C(OCCN2CC3CCC(C2)N3CCCc2ccccc2)c2ccc(F)cc2)cc1`: the TGI in assay [1] stood at 17.7 µM; in assay [2], 6.26 µM; in assay [3], 11.2 µM; in assay [4], 4.68 µM; in assay [5], 5.39 µM; in assay [6], 17.3 µM.
In the case of `CC[C@@]1(O)C(=O)OCc2c1cc1n(c2=O)Cc2c-1nc1ccccc1c2/C=N/NC(=O)c1ccc(N)cc1`, the TGI in assay [1] was 6.18 µM; in assay [2], 1.23 µM; in assay [3] it was > 87.8 µM; in assay [4] it was > 100 µM; in assay [5] it was > 100 µM; in assay [6], > 100 µM.
Regarding `CC(=O)N(C(C)=O)c1cc2c3c(c1)CCCN3CCC2`, the TGI in assay [1], in assay [2], in assay [3], in assay [4], in assay [5] and in assay [6] was > 10 µM throughout.
In the case of `COc1ccc2nc3cccc([N+](=O)[O-])c3c(NCCCO)c2c1`, the GI50 in assay [1] is 0.017 µM and 0.0275 µM; in assay [3] it was 0.00116 µM. The TGI in assay [1] was 0.0435 µM and 0.0788 µM; in assay [2] it was 0.00227 µM; in assay [3], 0.00344 µM and 0.0202 µM; in assay [4], 0.0017 µM and 0.0128 µM; in assay [5], 0.0132 µM; in assay [6], 0.0323 µM.
For the compound `ClCCCCCc1c2nc(c(CCCCCCl)c3ccc([nH]3)c(CCCCCCl)c3ccc([nH]3)c(CCCCCCl)c3nc1C=C3)C=C2`, the TGI in assay [1], in assay [2], in assay [3], in assay [4], in assay [5] and in assay [6] was > 100 µM in each case.
As to `COC(=O)[C@H](Cc1ccc(O)cc1)NC(=O)[C@H](Cc1ccc(O)cc1)NC(=O)OC(C)(C)C` (Boc-Tyr-Tyr-OMe), the TGI in assay [2], in assay [3] and in assay [5] was > 100 µM in each case.
On to `CCOP(=O)(OCC)OC1c2[nH]cc(C(=O)OCc3ccccc3)c2-c2cc(C(=O)OC)[nH]c2C1OC` (centres undefined), for which the TGI was > 100 µM in assay [1]; > 100 µM in assay [2]; 60 µM in assay [3]; > 100 µM in assay [4]; > 62.8 µM in assay [5]; > 100 µM in assay [6].
Consider `N#Cc1c(O)c(/C=N/c2ncccn2)c(=O)n2c1[nH]c1ccccc12`, for which the TGI in assay [1], in assay [2], in assay [3], in assay [4], in assay [5] and in assay [6] was > 100 µM each time.
Regarding `CC1(C)[C@@H]2C[C@H]1c1cnc(-c3ccccn3)cc1C2CCCCC[C@@H]1c2cc(-c3ccccn3)ncc2[C@@H]2C[C@H]1C2(C)C` (some centres undefined), the TGI was 8.92 µM in assay [1]; > 22.1 µM in assay [2]; > 100 µM in assay [3]; > 100 µM in assay [4]; > 100 µM in assay [5]; > 100 µM in assay [6].
In the case of `COc1cc(OC)c2[nH]c3c(O)c(-c4c(C)cc5c([nH]c6c(OC)cc(OC)cc65)c4O)c(C)cc3c2c1`, the results for the GI50 in assay [1] and in assay [4] were 7.82 µM and 12 µM, respectively. The TGI was determined as 14.8 µM in assay [1]; 15.5 µM in assay [2]; 24.9 µM in assay [4]; 15.3 µM in assay [5]; 20.3 µM in assay [6].
`COC(=O)CC1c2ccccc2N2C(=O)Cc3c([nH]c4ccccc34)C12` (centres undefined): the TGI in assay [1], in assay [2], in assay [3], in assay [4], in assay [5] and in assay [6] was > 100 µM each time.
As for `CN1CC2CN(Cc3ccccc3)CCN2c2cccnc21` (centres undefined), the TGI in assay [1], in assay [2], in assay [3], in assay [4], in assay [5] and in assay [6] was > 100 µM each time.
As for `Cn1c(N)nc(-c2ccc(Cl)cc2)c1SSc1c(-c2ccc(Cl)cc2)nc(N)n1C`, the TGI in assay [1] came out at 27.8 µM; in assay [2] it was 3.78 µM; in assay [3], 4.57 µM; in assay [4], 3.54 µM; in assay [5] it was 5.81 µM; in assay [6], 4.03 µM.
For the compound `CCCCCCCCCCCCCCCCCCOCC(O)COP(=O)(O)OCC1OC(n2ccc(N)nc2=O)C(O)C1O` (centres undefined), the TGI in assay [1] is 40.6 µM; in assay [3] it was > 100 µM; in assay [4], > 100 µM; in assay [5], 24.3 µM; in assay [6], > 100 µM.
In the case of `c1ccc2c(c1)OC(N1CCCC1)c1cnc(N3CCOCC3)nc1-2` (centres undefined), the TGI in assay [1] is 39.7 µM; in assay [2], > 100 µM; in assay [3] it was > 100 µM; in assay [4], > 100 µM; in assay [5] it was > 100 µM; in assay [6], > 100 µM.
Turning to `COc1ccc(-c2c(C#N)c(S)n(NS(=O)(=O)c3ccccc3)c(=O)c2C#N)cc1`, the TGI in assay [2], in assay [3], in assay [4], in assay [5] and in assay [6] was > 100 µM throughout.
With `O=C(N/N=C(/COc1ccccc1)N=Cc1cccnc1)c1ccncc1`, the TGI in assay [1], in assay [2], in assay [3], in assay [4], in assay [5] and in assay [6] was > 100 µM in each case.
On to `CCOC(=O)/C=C(/C)Nc1nc2c(c(C(=O)OC)c1C#N)CCCC2`, for which the TGI in assay [1], in assay [2], in assay [3], in assay [4], in assay [5] and in assay [6] was > 100 µM in each case.
With `Cn1cc(-c2csc(-c3cn(C)c4ccccc34)n2)c2ccccc21`, the TGI in assay [1] is 48.1 µM; in assay [2], > 100 µM; in assay [3], 70 µM; in assay [4], > 100 µM; in assay [5], > 100 µM; in assay [6], > 100 µM.
For `C[C@@H]1CC[C@@]2(OC1)O[C@H]1C[C@H]3[C@@H]4CC[C@H]5C[C@@H](OC6OC(CO)C(OC7OC(CO)C(O)C(OC8OCC(O)C(O)C8O)C7OC7OC(CO)C(O)C(O)C7O)C(O)C6O)[C@H](O)C[C@]5(C)[C@H]4CC[C@]3(C)[C@H]1[C@@H]2C` (some centres undefined), the TGI in assay [1] is 29.7 µM; in assay [2], 32 µM; in assay [3], 30.8 µM; in assay [4] it was 31.8 µM; in assay [5], 9.64 µM; in assay [6] it was 21 µM.
In the case of `O=c1oc2c(Cl)cc(Cl)cc2cc1C1=CSC2=NCCN12`, the TGI in assay [2], in assay [4], in assay [5] and in assay [6] was > 100 µM each time.
For the compound `Cc1ccc(N/C(SCc2ccccc2)=C(\C(Cl)=C(Cl)Cl)[N+](=O)[O-])c(C)c1`, the TGI is 74.1 µM in assay [1]; 34 µM in assay [2]; 47.5 µM in assay [3]; 26.1 µM in assay [4]; 32.7 µM in assay [5]; 33.3 µM in assay [6].
Take `NS(=O)(=O)c1ccc(/C=C/c2ccc(O)cc2)cc1`: the TGI is > 100 µM in assay [1]; > 100 µM in assay [2]; 78.1 µM in assay [3]; > 100 µM in assay [4]; 31.9 µM in assay [5]; > 100 µM in assay [6]. The GI50 was 20.3 µM in assay [4] and 4.81 µM in assay [5].
Turning to `O=C(c1cc2c(c3ccccc13)NC1(CCCCC1)N=C2C(F)(F)F)C(F)(F)F`, the TGI in assay [1] turned out to be 20.8 µM; in assay [2], 18.1 µM; in assay [3], 17.4 µM; in assay [4] it was 12.5 µM; in assay [5], 15.8 µM; in assay [6] it was 18.7 µM.
Consider `O=C(OCCNC(=O)N1CC1)OCCNC(=O)N1CC1`, for which the TGI in assay [1], in assay [2], in assay [3], in assay [4], in assay [5] and in assay [6] was > 10 µM in each case.
With `CCO/C=N/C1=C(C#N)SC2=N/C(=C\c3ccccc3)C(=O)N21`, the TGI in assay [1], in assay [2], in assay [3], in assay [4], in assay [5] and in assay [6] was > 100 µM in each case.
For the compound `Cc1ccc(Nc2nc3c(=O)n(C)c(=O)n(C)c3nc2Nc2ccc(C)cc2)cc1`, the TGI in assay [1] stood at 40.2 µM; in assay [3], 28.6 µM; in assay [4], 25.1 µM; in assay [5] it was 26.8 µM; in assay [6] it was 4.04 µM.
On to `CC(=O)CC1=C(OC(C)C)C2(OCCO2)C1O` (centres undefined), for which the TGI in assay [1], in assay [2], in assay [3], in assay [4], in assay [5] and in assay [6] was > 100 µM throughout.
With `CCOC(=O)c1cccc(NC(=O)CI)c1`, the TGI came to 4.72 µM in assay [1]; 0.664 µM in assay [2]; 2.98 µM in assay [3]; 0.797 µM in assay [4]; 0.687 µM in assay [5]; 1.64 µM in assay [6].
In the case of `Cc1n(Cc2ccccc2)nc2sc(N)n[n+]12`, the TGI in assay [1], in assay [2], in assay [3], in assay [4], in assay [5] and in assay [6] was > 100 µM each time.
On to `c1ccc(CSC2(SCc3ccccc3)CCCCC2)cc1`, for which the TGI in assay [1], in assay [2], in assay [3], in assay [5] and in assay [6] was > 10 µM each time.
Consider `Cc1ccc(N(C)S(=O)(=O)c2ccccc2[N+](=O)[O-])cc1`, for which the TGI is 44.5 µM in assay [2]; > 100 µM in assay [3]; > 100 µM in assay [4]; > 100 µM in assay [5]; > 100 µM in assay [6].
Turning to `C=C1C[C@H](O)[C@H](Br)C(C)(C)C12CCC(C)(Cl)C(Br)C2` (some centres undefined), the TGI turned out to be 13.3 µM in assay [2]; 16.6 µM in assay [3]; 11.7 µM in assay [4]; 15.1 µM in assay [5]; 20.4 µM in assay [6].
Turning to `Cc1ccc(C(=O)N/N=C(\N=Nc2ccc(C(=O)O)cc2)c2ccc(N(CCC#N)CCC#N)cc2C)cc1`, the TGI in assay [1], in assay [2], in assay [4], in assay [5] and in assay [6] was > 100 µM throughout.
As to `COc1ccccc1C1c2cc3c(cc2OC(N2CCOCC2)C1C)OCO3` (centres undefined), the TGI is 38.7 µM in assay [2], 24.9 µM in assay [4], > 100 µM in assay [5] and 50.3 µM in assay [6].
As to `Cc1cc(S(=O)(=O)/N=C(\[N-]S(=O)(=O)c2cc(Cl)sc2Cl)[n+]2ccc(N(C)C)cc2)c(S)cc1Cl`, the TGI in assay [1] is 82.5 µM; in assay [2] it was 95.8 µM; in assay [4], > 100 µM; in assay [5], > 100 µM; in assay [6], > 100 µM.
Take `Cc1cnc2sn(-c3ccc(Br)cc3)c(=O)c2c1`: the TGI in assay [2] was > 100 µM; in assay [3] it was 43.6 µM; in assay [4], > 100 µM; in assay [5], > 100 µM; in assay [6], 89.6 µM.
